In brackets after ≈: the same amount, converted by molar mass. Activity calls are given as the source filed them. The calls are words filed in the database; no cut-off is given here.
Columns and labels:
[1] = system: Staphylococcus aureus; assay: Bactericidal activity against methicillin-resistant Staphylococcus aureus MRSA252 assessed as reduction in bacterial count at 4 to 8 times MIC measured after 24 hrs by time kill assay; type: functional
[2] = MRT (infinity) in CD-1 mouse at 10 mg/kg, iv measured for 24 hrs by UPLC analysis; type: ADME, organism-based; details: in vivo
[3] = system: Staphylococcus aureus; assay: Post-antibiotic effect in Staphylococcus aureus MRSA252 assessed as time of effect at 20 times; type: functional
[4] = system: Staphylococcus aureus; assay: Post-antibiotic effect in Staphylococcus aureus MRSA252 assessed as decrease in bacterial titer at 20 times measured after 7 hrs; type: functional
[5] = system: Enterococcus faecalis; assay: Antibacterial activity against Enterococcus faecalis clinical isolate incubated for 16 to 24 hrs by CLSI based broth microdilution method; type: functional; details: time 16-24 hrs
[6] = system: Enterococcus faecium; assay: Bacteriostatic activity against Enterococcus faecium SC-2022-D2-059 harboring VanA phenotype at 1 to 8 times MIC measured after 24 hrs by time kill assay; type: functional, organism-based
[7] = system: Staphylococcus aureus; assay: Induction of membrane disruption in Staphylococcus aureus MRSA252 assessed as leakage of protoplasm content at 1 to 8 ug/ml incubated for 4 to 24 hrs by SEM analysis; type: functional, organism-based; details: dose 1-8 µg/ml, time 4-24 hrs
[8] = system: Staphylococcus aureus; assay: Antibacterial activity against methicillin-resistant Staphylococcus aureus clinical isolate incubated for 16 to 24 hrs by CLSI based broth microdilution method; type: functional; details: time 16-24 hrs
[9] = system: Staphylococcus aureus; assay: Potency index, ratio of Vancomycin MIC to test compound MIC for vancomycin-intermediate Staphylococcus aureus incubated for 16 to 24 hrs by CLSI based broth microdilution method; type: functional; details: time 16-24 hrs
[10] = system: Escherichia coli; assay: Bactericidal activity against Escherichia coli AB1157 assessed as reduction in bacterial count at 4 times MIC measured after 24 hrs by time kill assay; type: functional
[11] = system: Escherichia coli; assay: Induction of cytoplasmic membrane depolarization in Escherichia coli AB1157 at 5 uM by DiSC3(5) staining based analysis; type: functional, organism-based
[12] = system: Staphylococcus epidermidis; assay: Antibacterial activity against methicillin-resistant Staphylococcus epidermidis clinical isolate incubated for 16 to 24 hrs by CLSI based broth microdilution method; type: functional; details: time 16-24 hrs
[13] = AUClast in CD-1 mouse at 10 mg/kg, iv measured for 24 hrs by UPLC analysis; type: ADME, organism-based; details: in vivo
[14] = system: Enterococcus faecium; assay: Potency index, ratio of Norvancomycin MIC to test compound MIC for vancomycin-resistant Enterococcus faecium incubated for 16 to 24 hrs by CLSI based broth microdilution method; type: functional; details: time 16-24 hrs
[15] = Volume of distribution at steady state in CD-1 mouse at 10 mg/kg, iv measured for 24 hrs by UPLC analysis; type: ADME, organism-based; details: in vivo, read-out: Vdss
[16] = Toxicity in BALB/c mouse infected with methicillin-resistant Staphylococcus aureus MRSA252 assessed as survival rate at 10 to 20 mg/kg, iv for 7 days; type: organism-based; details: in vivo, 168 h, dose 10-20 mg/kg, time 7 day
[17] = AUC (infinity) in CD-1 mouse at 10 mg/kg, iv measured for 24 hrs by UPLC analysis; type: ADME, organism-based; details: in vivo
[18] = system: Staphylococcus aureus; assay: Antibacterial activity against vancomycin-intermediate Staphylococcus aureus incubated for 16 to 24 hrs by CLSI based broth microdilution method; type: functional; details: time 16-24 hrs
[19] = Half life in CD-1 mouse at 10 mg/kg, iv measured for 24 hrs by UPLC analysis; type: ADME, organism-based; details: in vivo
[20] = system: Peptidoglycan; assay: Binding affinity to Ac-Lys(Gly5)-D-Ala-D-Ala lipid II model peptide moiety assessed as association constant by ITC analysis
[21] = system: Enterococcus faecalis; assay: Induction of cytoplasmic membrane depolarization in Enterococcus faecalis ATCC29212 by DiSC3(5) staining based analysis; type: functional, organism-based
[22] = system: Enterococcus faecium; assay: Antibacterial activity against vancomycin-resistant Enterococcus faecium harboring VanA phenotype clinical isolate incubated for 16 to 24 hrs by CLSI based broth microdilution method; type: functional; details: time 16-24 hrs
[23] = system: Staphylococcus aureus; assay: Potency index, ratio of Norvancomycin MIC to test compound MIC for vancomycin-intermediate Staphylococcus aureus incubated for 16 to 24 hrs by CLSI based broth microdilution method; type: functional; details: time 16-24 hrs
[24] = system: Escherichia coli; assay: Bactericidal activity against Escherichia coli AB1157 assessed as reduction in bacterial count at 8 times MIC measured after 24 hrs by time kill assay; type: functional
[25] = system: Enterococcus faecium; assay: Antibacterial activity against vancomycin-resistant Enterococcus faecium harboring VanA phenotype incubated for 16 to 24 hrs by CLSI based broth microdilution method; type: functional; details: time 16-24 hrs
[26] = system: Escherichia coli; assay: Bactericidal activity against Escherichia coli AB1157 assessed as reduction in bacterial count at MIC measured after 24 hrs by time kill assay; type: functional
[27] = system: Escherichia coli; assay: Induction of inner membrane permeabilization in Escherichia coli AB1157 measured for 50 mins by PI staining based analysis; type: functional, organism-based; details: dose 1-128 µg/ml
[28] = system: Escherichia coli; assay: Antibacterial activity against Escherichia coli AB1157 incubated for 16 to 24 hrs by CLSI based broth microdilution method; type: functional; details: time 16-24 hrs
[29] = system: Enterococcus faecium; assay: Potency index, ratio of Vancomycin MIC to test compound MIC for vancomycin-resistant Enterococcus faecium incubated for 16 to 24 hrs by CLSI based broth microdilution method; type: functional; details: time 16-24 hrs
[30] = system: Staphylococcus aureus; assay: Induction of drug resistance in vancomycin-intermediate Staphylococcus aureus Mu50 assessed as change in MIC after 20 passages by broth microdilution method; type: functional, organism-based
[31] = system: Staphylococcus aureus; assay: Induction of cytoplasmic membrane permeabilization in methicillin-resistant Staphylococcus aureus MRSA252 measured for 40 mins by PI/NPN staining based analysis; type: functional, organism-based; details: dose 1-128 µg/ml
[32] = system: Klebsiella pneumoniae; assay: Antibacterial activity against Klebsiella pneumoniae clinical isolate incubated for 16 to 24 hrs by CLSI based broth microdilution method; type: functional; details: time 16-24 hrs
[33] = system: Staphylococcus aureus; assay: Post-antibiotic effect in Staphylococcus aureus MRSA252 assessed as time of effect at 10 times; type: functional
[34] = system: Staphylococcus aureus; assay: Induction of drug resistance in vancomycin-sensitive Staphylococcus aureus MRSA252 assessed as change in MIC measured after 16 days of serial passages by broth microdilution method; type: functional, organism-based; details: time 16.0 day
[35] = system: Staphylococcus hominis; assay: Antibacterial activity against methicillin-resistant Staphylococcus hominis clinical isolate incubated for 16 to 24 hrs by CLSI based broth microdilution method; type: functional; details: time 16-24 hrs
[36] = system: Enterococcus faecalis; assay: Induction of inner membrane permeabilization in Enterococcus faecalis ATCC29212 measured for 20 mins by DiSC3(5) staining based analysis; type: functional, organism-based; details: dose 1-128 µg/ml
[37] = system: Peptidoglycan; assay: Potency index, ratio of vancomycin Ka to test compound Ka for Ac-Lys(Gly5)-D-Ala-D-Ala lipid II model peptide moiety
[38] = system: Enterococcus faecium; assay: Antibacterial activity against Enterococcus faecium clinical isolate incubated for 16 to 24 hrs by CLSI based broth microdilution method; type: functional; details: time 16-24 hrs
[39] = system: Acinetobacter baumannii; assay: Potency index, ratio of Norvancomycin MIC to test compound MIC for Carbapenem-resistant Acinetobacter baumannii clinical isolate incubated for 16 to 24 hrs by CLSI based broth microdilution method; type: functional; details: time 16-24 hrs
[40] = system: Enterococcus faecium; assay: Antibacterial activity against vancomycin-resistant Enterococcus faecium harboring VanB phenotype incubated for 16 to 24 hrs by CLSI based broth microdilution method; type: functional; details: time 16-24 hrs
[41] = system: Escherichia coli; assay: Potency index, ratio of Norvancomycin MIC to test compound MIC for Escherichia coli […] incubated for 16 to 24 hrs by CLSI based broth microdilution method; type: functional; details: time 16-24 hrs
[42] = system: Peptidoglycan; assay: Binding affinity to Ac-Lys(Gly5)-D-Ala-D-Ala lipid II model peptide moiety assessed as change in Gibb's free energy by ITC analysis

CC(C)C[C@@H](N)C(=O)N[C@H]1C(=O)N[C@@H](CC(N)=O)C(=O)N[C@H]2C(=O)N[C@H]3C(=O)N[C@H](C(=O)N[C@H](C(=O)NCc4ccc(-c5ccc(CNC(=N)N)cc5)cc4)c4cc(O)cc(O)c4-c4cc3ccc4O)[C@H](O)c3ccc(c(Cl)c3)Oc3cc2cc(c3O[C@@H]2O[C@H](CO)[C@@H](O)[C@H](O)[C@H]2O[C@H]2C[C@](C)(N)[C@H](O)[C@H](C)O2)Oc2ccc(cc2Cl)[C@H]1O
Activity [1]: ~1 log10CFU/ml
MRT inf [2]: 20.2 h
Time [3]: 23 h
Activity [4]: 1.2 log10CFU/ml
MIC [5]: ≤ 0.03 µg/mL
Activity [6]: Active
Activity [7]: Active
MIC [8]: ≤ 0.03 µg/mL
Ratio [9]: 2
Activity [10]: 2 log10CFU/ml
Activity [11]: inactive
MIC [12]: ≤ 0.03 µg/mL
AUC(0-t) at 24 h [13]: 28400 ng·h/mL
Ratio [14]: 2
Vd [15]: 5.12 L/kg
Activity [16]: 100%
AUC(0-inf) [17]: 40000 ng·h/mL
MIC [18]: 1 µg/mL (≈ 0.598 µM)
half-life [19]: 13.4 h
Ka [20]: 2.32e+06 M⁻¹
Activity [21]: Active
MIC [22]: 2 µg/mL (≈ 1.2 µM)
Ratio [23]: 2
Activity [24]: 3 log10CFU/ml
MIC [25]: 4 µg/mL (≈ 2.39 µM)
Activity [26]: 1 log10CFU/ml
Activity [27]: Dose-Dependent Effect
MIC [28]: 8 µg/mL (≈ 4.79 µM)
Ratio [29]: 2
Activity [30]: inactive
Activity [31]: Dose-Dependent Effect
MIC [32]: > 128 µg/mL
Time [33]: 6 h
Activity [34]: inactive
MIC [35]: ≤ 0.03 µg/mL
Activity [36]: Dose-Dependent Effect
Ratio [37]: 1.7
MIC [38]: ≤ 0.03 µg/mL
Ratio [39]: 2
MIC [40]: 2 µg/mL (≈ 1.2 µM)
Ratio [41]: 2
deltaG [42]: -8.69 kcal/mol

— ChEMBL document CHEMBL6127119 (J Med Chem, 2024)
